Assay results published in ChEMBL document CHEMBL1150762, “Homology modeling and site-directed mutagenesis to identify selective inhibitors of endothelin-converting enzyme-2” (J Med Chem, 2008).

Tests used:
[1] = target: T1, Endothelin-converting enzyme 2 (Homo sapiens, UniProt P0DPD6); assay: Reduction of recombinant ECE2 activity measured by McaBk2 fluorescent substrate hydrolysis
T1 sequence (P0DPD6 whole entry): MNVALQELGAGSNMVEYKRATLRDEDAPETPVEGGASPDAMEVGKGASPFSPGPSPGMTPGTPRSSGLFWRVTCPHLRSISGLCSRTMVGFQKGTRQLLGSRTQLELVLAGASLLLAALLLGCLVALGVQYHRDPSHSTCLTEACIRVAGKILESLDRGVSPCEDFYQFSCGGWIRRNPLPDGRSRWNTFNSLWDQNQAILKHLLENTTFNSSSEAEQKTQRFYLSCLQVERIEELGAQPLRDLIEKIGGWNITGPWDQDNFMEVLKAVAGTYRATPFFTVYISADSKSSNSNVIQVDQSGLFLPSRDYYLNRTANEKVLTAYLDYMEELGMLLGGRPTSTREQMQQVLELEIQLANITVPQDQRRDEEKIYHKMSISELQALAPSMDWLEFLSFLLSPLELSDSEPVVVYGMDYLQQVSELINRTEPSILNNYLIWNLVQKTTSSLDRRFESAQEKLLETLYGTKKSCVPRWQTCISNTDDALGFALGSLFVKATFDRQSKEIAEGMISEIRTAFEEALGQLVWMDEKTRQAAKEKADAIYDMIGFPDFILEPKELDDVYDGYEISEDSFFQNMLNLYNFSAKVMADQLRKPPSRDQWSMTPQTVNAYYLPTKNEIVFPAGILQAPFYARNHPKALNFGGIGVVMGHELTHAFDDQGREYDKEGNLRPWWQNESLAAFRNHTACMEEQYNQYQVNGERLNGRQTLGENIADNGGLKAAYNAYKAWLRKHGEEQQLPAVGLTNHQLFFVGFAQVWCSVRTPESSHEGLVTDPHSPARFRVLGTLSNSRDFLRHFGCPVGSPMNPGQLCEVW

[2] = target: T2, Endothelin-converting enzyme 2 (Homo sapiens) (UniProt P0DPD6); assay: Reduction of recombinant ECE2 activity measured by McaBk2 fluorescent substrate hydrolysis at 10 uM; set-up: scale not given: the % may be the effect or the level left
T2 sequence (whole entry): T1 sequence (P0DPD6 whole entry)

Neprilysin = Neprilysin (Homo sapiens, UniProt P08473); assay: Inhibition of Neprilysin
Chain of Neprilysin (P08473 whole entry): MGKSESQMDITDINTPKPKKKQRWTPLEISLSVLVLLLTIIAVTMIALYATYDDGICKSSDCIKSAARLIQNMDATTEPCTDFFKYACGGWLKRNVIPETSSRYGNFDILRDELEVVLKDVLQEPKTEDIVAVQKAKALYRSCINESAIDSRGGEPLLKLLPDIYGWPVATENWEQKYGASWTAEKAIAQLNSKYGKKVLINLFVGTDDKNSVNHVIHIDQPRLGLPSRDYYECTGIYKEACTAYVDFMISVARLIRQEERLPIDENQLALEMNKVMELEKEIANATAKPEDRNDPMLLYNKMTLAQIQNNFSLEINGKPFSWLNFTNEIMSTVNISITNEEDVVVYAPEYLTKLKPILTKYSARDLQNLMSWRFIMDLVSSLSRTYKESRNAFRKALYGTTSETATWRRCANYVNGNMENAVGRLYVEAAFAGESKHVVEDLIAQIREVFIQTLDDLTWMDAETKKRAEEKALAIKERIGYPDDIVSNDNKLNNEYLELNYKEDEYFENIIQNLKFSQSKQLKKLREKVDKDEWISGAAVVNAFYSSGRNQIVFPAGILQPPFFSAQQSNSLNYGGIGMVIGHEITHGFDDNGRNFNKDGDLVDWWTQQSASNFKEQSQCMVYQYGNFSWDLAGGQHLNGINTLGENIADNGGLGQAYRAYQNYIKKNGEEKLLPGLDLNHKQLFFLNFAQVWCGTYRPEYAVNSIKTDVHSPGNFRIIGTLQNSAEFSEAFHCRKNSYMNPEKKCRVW

| SMILES | IC50 [1] | Activity [2] | IC50 (Neprilysin) |
| --- | --- | --- | --- |
| COc1cccc(/C=C/c2ccc3cccc(O)c3n2)c1 | 35.7 µM |  |  |
| Oc1ccccc1/C=C/c1ccc2ccccc2n1 | 6.42 µM | > 70% | > 100 µM |
| O=C(Cc1ccc2nccnc2c1)N1CCCC1 | 5.83 µM | > 70% | > 50 µM |
| Oc1ccccc1/C=C\c1ccc2ccccc2n1 | 4.63 µM |  |  |
| COc1cccc(/C=C/c2ccc3cccc(O)c3n2)c1O | 32.9 µM |  |  |
